Results published in patent US8415376B2, “Inhibitors of PI3 kinase” (Amgen Inc., priority 2008, dated 2013).

Key:
mTOR = biological target: T1, mTOR (Homo sapiens, UniProt P42345); assay: In vitro mTOR assay (Lanthascreen); type: biochemical; conditions: average if run more than once
T1 construct: purchased Invitrogen (Carlsbad, Calif.)
Source text: The Invitrogen (Carlsbad, Calif.) mammalian target of rapamycin (mTOR) Lanthascreen assay can be used to quantitate mTOR kinase activity in an in vitro setting. Active mTOR phosphorylates eukaryotic translation initiation factor 4E binding protein 1 (4E-BP1) on residue threonine 46. This phosphorylation event can be detected with a phospho-specific terbium (Tb) labeled Ab, in turn bringing the Tb label in close proximity to the GFP tagged 4E-BP1 and allowing for time-resolved fluorescence resonance energy transfer (TR-FRET), which correlates 4E-BP1 phosphorylation levels with mTOR kinase activity.
Enzyme reaction buffer can be prepared in deionized water containing 50 mM HEPES (pH 7.5), 0.01% Polysorbate 20, 1 mM EGTA, and 10 mM MnCl2.
Dilutions of the compound to be tested can be prepared in 96-well polypropylene plates (Fisher Scientific, Waltham, Mass.). One row represents a 10-point dose of compound diluted 1:3 in enzyme reaction buffer and 20% dimethyl sulfoxide (DMSO). The top concentration for all compounds is 36 μM. Wells 6 and 12 can serve as the no compound (DMSO only) and high compound controls.
An mTOR substrate solution can prepared in enzyme reaction buffer containing 1600 nM green fluorescent protein tagged eukaryotic translation initiation factor 4E binding protein 1 (GFP-4E-BP1) (Invitrogen, Carlsbad, Calif.) and 28 uM adenosine triphosphate (ATP) (Calbiochem, Gibbstown, N.J.).
mTOR enzyme (Invitrogen, Carlsbad, Calif.) can be diluted in enzyme reaction buffer to a working concentration of 100 ng/mL.
The enzyme assay can be run in 384 well low volume assay plates (Corning, Corning, N.Y.). 2.5 uL of substrate solution containing GFP-4E-BP1 and ATP can be added to appropriate wells in the assay plate followed by 2.5 μL of compound dilutions. 5 μL of appropriately diluted mTOR enzyme can be added and the reaction allowed to proceed for 1 hour at room temperature. Final reagent concentrations in the enzyme assay are 50 ng/mL mTOR, 400 nM GFP-4E-BP1, and 7 μM ATP.
The enzyme assay can be terminated upon the addition of 10 μL of 20 mM EDTA and 4 nM Tb-labeled anti-phospho-4E-BP1 [T46] antibody (Invitrogen, Carlsbad, Calif.). The assay plate can then be incubated at room temperature for 1 hour and results read on a Tecan Safire II plate reader (Tecan, Männedorf, Switzerland).

[1] = system: phosphorylation of Akt at Serine 473; assay: pAkt AlphaScreen (U87 cell); type: cell-based; conditions: Homo sapiens, U-87 MG; U87 MG cells, pAkt Ser473; average
Description: pAkt Alphascreen (U87 Cell)
The pAkt AlphaScreen® assay (PerkinElmer, Waltham, Mass.) determines whether there is phosphorylation of Akt at Serine 473 by recruitment of a phosphospecific antibody. This assay was performed using U87 MG cells. The U87 growth media consists of MEM (Gibco, Carlsbad, Calif.) supplemented with 10% FBS (Gibco,), 1× Non-Essential Amino Acids (Gibco,) and 1× Penicillin/Streptomycin/Glutamine (Gibco). The cells were maintained weekly using 0.05% Trypsin (Gibco) and replated in 150 mm TC-Treated Culture Dishes (Corning, Corning, N.Y.).
The first day of the assay, the adherent cells were trypsinized, media was added to the loose cells and cells were mixed to a homogenous mixture. 0.5 ml of the homogenous mixture was counted on the Beckman Coulter® Vi-CELL™ XR (Fullerton, Calif.). 50 frames of cells were counted and the number of viable cells was determined. The cells were then diluted to 0.25 million cells per ml, and centrifuged at 200 rcf for 5 minutes. The media was removed and the cells were reconstituted in fresh media for plating. The cells were plated at 20 μl per well on the PerkinElmer® FlexDrop PLUS in Low Volume 384 Well White Tissue Culture Plates (Corning) with a final cell density of 5K cells per well. The plates were incubated overnight at 37° Celsius, 5% CO2.
On the second day, the compound plates were prepared, the cells were treated with compound and the pAkt reaction mix was added to the cell lysate. 384 well compound plates were prepared containing 1 μl of compound per well starting at 5 mM and diluted 1:2 across the row, resulting in a 22 well serial dilution. 39 μl of growth media was added to the compound plate in rows 1-22 using the PerkinElmer® FlexDrop PLUS resulting in a DMSO concentration of 2.5%. The cell plates and diluted compound plates were put onto the VELOCITY11™ VPREP™ 384 ST where the compound plate was mixed and 5 μl of serially diluted compound or controls was added to the cell plate. The final concentration of the compounds was 25 μM serially diluted to 11.9 pM in 0.5% DMSO. The cell plates were then incubated with compound for two hours at 37° Celsius, 5% CO2. After two hours, the media in the cell plates was aspirated using the BioTek® ELx405HT plate washer (Winooski, Vt.) removing the majority of media and compound without disturbing the adherent U87 cells. The following assay reagents are components of the SureFire® Akt (Ser 473) Phosphorylation 50K Point Kit (TGR BioSciences, Adelaide, Austalia) and an IgG Detection Kit (PerkinElmer, Waltham, Mass.). 5 μl of 1× Lysis Buffer was added to each well using the PerkinElmer® FlexDrop PLUS. The plates were then incubated at room temperature on a shaker for ten minutes. The AlphaScreen® reaction was prepared under low light conditions (subdued or green light) including p-Akt (Ser 473) Reaction Buffer, Dilution Buffer, Activation Buffer, Acceptor Beads and Donor Beads at a ratio of 40:20:10:1:1 respectively. The AlphaScreen® reaction was added to the cell lysate at 6 μl per well using the PerkinElmer® FlexDrop PLUS. The plates were placed in a humid environment to reduce edge effects and incubated overnight at room temperature with restricted air flow in the dark.
On the final day of the experiment, the plates were read on the PerkinElmer® EnVision™ 2103 Multilable Reader using the standard AlphaScreen® readout. The POC is calculated and the data is analyzed to report the IC50 IP for pAkt at Serine 473.
Activity data for the compounds tested in the PI3K cell based Akt assay is provided in Table 2 under the column heading U87

PI3Kα = biological target: T2, PI3Kα (Homo sapiens, UniProt P42336); assay: In vitro PI3K AlphaScreen assay; type: biochemical; conditions: average if run more than once
T2 construct: Full length p110 subunits of PI3K α, β and δ, N-terminally labeled with polyHis tag; polyHis (N); made in house; host or cells: Sf9 insect cells (baculovirus)
T2 sequence (P42336 whole entry): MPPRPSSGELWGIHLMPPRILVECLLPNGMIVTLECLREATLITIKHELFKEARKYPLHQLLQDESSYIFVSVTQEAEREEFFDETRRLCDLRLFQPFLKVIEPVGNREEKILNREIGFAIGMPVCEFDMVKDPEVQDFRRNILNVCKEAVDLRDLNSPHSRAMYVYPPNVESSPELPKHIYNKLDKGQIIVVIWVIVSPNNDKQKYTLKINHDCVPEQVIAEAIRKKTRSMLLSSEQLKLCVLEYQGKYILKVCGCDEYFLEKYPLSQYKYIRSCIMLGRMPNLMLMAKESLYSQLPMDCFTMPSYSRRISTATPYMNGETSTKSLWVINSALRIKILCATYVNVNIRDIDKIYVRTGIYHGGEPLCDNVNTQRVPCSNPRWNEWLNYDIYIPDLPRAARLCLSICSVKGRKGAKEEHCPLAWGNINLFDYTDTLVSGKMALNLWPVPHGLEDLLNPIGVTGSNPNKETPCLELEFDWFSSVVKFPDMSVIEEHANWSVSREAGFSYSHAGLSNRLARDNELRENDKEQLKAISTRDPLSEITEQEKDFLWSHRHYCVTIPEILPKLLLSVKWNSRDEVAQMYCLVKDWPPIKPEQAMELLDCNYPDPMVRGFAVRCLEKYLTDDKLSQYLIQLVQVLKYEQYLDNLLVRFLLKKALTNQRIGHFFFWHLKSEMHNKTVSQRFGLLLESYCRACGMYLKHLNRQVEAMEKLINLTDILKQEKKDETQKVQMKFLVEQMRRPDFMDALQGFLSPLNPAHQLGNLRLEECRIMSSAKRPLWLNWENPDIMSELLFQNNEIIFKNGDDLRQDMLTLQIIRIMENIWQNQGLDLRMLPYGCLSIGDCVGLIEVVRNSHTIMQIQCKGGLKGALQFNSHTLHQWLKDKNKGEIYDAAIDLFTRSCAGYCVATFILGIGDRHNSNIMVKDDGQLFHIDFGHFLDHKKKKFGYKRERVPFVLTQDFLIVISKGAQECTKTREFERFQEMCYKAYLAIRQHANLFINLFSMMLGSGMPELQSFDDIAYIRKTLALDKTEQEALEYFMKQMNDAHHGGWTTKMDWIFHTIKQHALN
T2 sequence (P27986 whole entry partner): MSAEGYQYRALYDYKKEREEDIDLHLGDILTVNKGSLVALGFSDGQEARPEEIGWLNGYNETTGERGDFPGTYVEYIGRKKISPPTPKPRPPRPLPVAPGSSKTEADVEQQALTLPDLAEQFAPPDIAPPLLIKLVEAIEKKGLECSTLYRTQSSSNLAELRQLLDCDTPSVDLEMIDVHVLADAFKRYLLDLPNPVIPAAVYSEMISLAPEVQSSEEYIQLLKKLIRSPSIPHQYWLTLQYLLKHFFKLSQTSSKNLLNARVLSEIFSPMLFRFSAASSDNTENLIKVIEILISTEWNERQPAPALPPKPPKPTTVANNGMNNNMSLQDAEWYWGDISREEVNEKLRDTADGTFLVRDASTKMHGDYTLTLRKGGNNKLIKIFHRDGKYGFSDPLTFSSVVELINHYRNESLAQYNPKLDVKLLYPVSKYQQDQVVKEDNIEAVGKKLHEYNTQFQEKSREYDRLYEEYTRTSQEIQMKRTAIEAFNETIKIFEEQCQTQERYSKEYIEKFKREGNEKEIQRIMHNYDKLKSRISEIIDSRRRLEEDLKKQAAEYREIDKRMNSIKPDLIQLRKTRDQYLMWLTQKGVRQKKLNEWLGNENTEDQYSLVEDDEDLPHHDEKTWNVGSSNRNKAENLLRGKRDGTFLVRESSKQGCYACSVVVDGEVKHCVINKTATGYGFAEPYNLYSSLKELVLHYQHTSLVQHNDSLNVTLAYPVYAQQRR

T1 sequence (P42345 1360-2549 limits assumed): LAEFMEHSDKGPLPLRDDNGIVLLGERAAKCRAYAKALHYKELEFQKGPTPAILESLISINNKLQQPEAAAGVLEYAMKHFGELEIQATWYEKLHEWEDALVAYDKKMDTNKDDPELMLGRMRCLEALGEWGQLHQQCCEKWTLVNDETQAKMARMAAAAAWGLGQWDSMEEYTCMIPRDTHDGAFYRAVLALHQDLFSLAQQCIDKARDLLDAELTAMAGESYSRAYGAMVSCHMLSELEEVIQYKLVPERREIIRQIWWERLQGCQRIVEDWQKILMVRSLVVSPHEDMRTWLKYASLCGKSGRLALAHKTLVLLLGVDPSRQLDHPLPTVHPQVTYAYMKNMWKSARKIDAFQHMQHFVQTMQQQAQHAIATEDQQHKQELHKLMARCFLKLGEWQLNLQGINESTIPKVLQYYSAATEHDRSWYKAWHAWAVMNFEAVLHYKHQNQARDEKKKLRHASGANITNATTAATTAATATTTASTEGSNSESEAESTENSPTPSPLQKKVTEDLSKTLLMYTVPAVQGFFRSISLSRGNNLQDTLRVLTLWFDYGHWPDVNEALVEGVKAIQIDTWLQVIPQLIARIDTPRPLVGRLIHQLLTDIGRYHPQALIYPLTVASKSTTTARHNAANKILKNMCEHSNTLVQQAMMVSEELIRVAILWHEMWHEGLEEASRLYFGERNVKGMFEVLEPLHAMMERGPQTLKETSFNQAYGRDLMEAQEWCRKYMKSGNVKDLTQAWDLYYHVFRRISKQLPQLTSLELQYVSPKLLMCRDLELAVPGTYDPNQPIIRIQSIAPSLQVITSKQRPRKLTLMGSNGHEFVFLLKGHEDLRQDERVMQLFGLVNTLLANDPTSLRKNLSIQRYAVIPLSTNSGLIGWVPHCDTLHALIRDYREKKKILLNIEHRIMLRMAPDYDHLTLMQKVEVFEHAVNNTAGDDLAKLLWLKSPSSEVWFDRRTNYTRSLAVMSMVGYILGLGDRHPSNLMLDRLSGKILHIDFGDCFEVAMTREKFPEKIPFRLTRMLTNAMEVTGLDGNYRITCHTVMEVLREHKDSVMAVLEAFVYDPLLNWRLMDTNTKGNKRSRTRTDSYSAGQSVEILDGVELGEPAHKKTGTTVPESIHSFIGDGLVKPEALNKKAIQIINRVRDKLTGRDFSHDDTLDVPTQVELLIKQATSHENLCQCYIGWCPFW

Question: How did the IC50 (mTOR) turn out when `O=S(=O)(Nc1cc(-c2ccc3ncc(-c4ccncc4)nc3c2)cnc1Cl)c1ccc(F)cc1` [Example 121, N-(2-Chloro-5-(3-(pyridin-4-yl)quinoxalin-6-yl)pyridin-3-yl)-4-fluorobenzenesulfonamide] was run?
Answer: The IC50 was 0.0057 µM.

Question: What about the IC50 [1] of the same compound?
Answer: The IC50 was 0.031 µM.

Question: `C[C@@H]1CN(c2ccnc3ccc(-c4cnc(Cl)c(NS(C)(=O)=O)c4)cc23)C[C@@H](C)O1` (racemic) [Example 104, N-(2-chloro-5-(4-(2,6-dimethyl-4-morpholinyl)-6-quinolinyl)-3-pyridinyl)methanesulfonamide] was tested. Which Ki (PI3Kα) did it give?
Answer: The Ki was 0.0083 µM.

Question: What about the IC50 (mTOR) of the same compound?
Answer: Its IC50 is 0.0058 µM.

Question: What about the IC50 [1] of the same compound?
Answer: Its IC50 is 0.0284 µM.

Question: For `O=c1c2cccnc2ccn1-c1cnc(Cl)c(NS(=O)(=O)c2ccc(F)cc2)c1` [Example 137, N-(2-chloro-5-(5-oxo-1,6-naphthyridin-6(5H)-yl)-3-pyridinyl)-4-fluorobenzenesulfonamide], which Ki (PI3Kα) is on record?
Answer: Its Ki is 0.548 µM.

Question: And the IC50 [1]?
Answer: Its IC50 is 2.98 µM.

Question: For `CS(=O)(=O)Nc1cc(-c2ccc3nccc(N4CCC(c5ccccc5)CC4)c3c2)cnc1Cl` [Example 82, N-(2-chloro-5-(4-(4-phenyl-1-piperidinyl)-6-quinolinyl)-3-pyridinyl)methanesulfonamide], which Ki (PI3Kα) is on record?
Answer: The Ki was 0.0052 µM.

Question: What about the IC50 (mTOR) of the same compound?
Answer: Its IC50 is 0.0167 µM.

Question: What about the IC50 [1] of the same compound?
Answer: Its IC50 is 0.364 µM.

Question: For `CS(=O)(=O)Nc1cc(-c2ccc3nccc(N4Cc5ccc(F)cc5C4)c3c2)cnc1Cl` [Example 86, N-(2-chloro-5-(4-(5-fluoro-1,3-dihydro-2H-isoindol-2-yl)-6-quinolinyl)-3-pyridinyl)methanesulfonamide], which Ki (PI3Kα) is on record?
Answer: Its Ki is 0.016 µM.

Question: What about the IC50 (mTOR) of the same compound?
Answer: Its IC50 is 0.162 µM.

Question: What about the IC50 [1] of the same compound?
Answer: The IC50 was 0.667 µM.

Question: Which results are given for `O=S1(=O)CCC(COc2ccnc3ccc(-c4cnc(Cl)c(NS(=O)(=O)c5ccc(F)cc5)c4)cc23)CC1` [Example 113, N-(2-Chloro-5-(4-((tetrahydro-2H-thiopyran-1,1-dioxide-4-yl)methoxy)quinolin-6-yl)pyridin-3-3-yl)-4-fluorobenzenesulfonamide]?
Answer: Ki (PI3Kα): 0.0016 µM; IC50 (mTOR): 0.0146 µM; IC50 [1]: 0.0444 µM

Question: With `CS(=O)(=O)Nc1cc(-c2ccc3nccc(C4=CCOCC4)c3c2)cnc1Cl` [Example 107, N-(2-chloro-5-(4-(3,6-dihydro-2H-pyran-4-yl)-6-quinolinyl)-3-pyridinyl)methanesulfonamide] as the compound, how does the Ki (PI3Kα) read?
Answer: The Ki was 0.0017 µM.

Question: And the IC50 (mTOR)?
Answer: Its IC50 is 0.004 µM.

Question: What about the IC50 [1] of the same compound?
Answer: Its IC50 is 0.0198 µM.

Question: Which Ki (PI3Kα) does the source give for `CS(=O)(=O)Nc1cc(-c2ccc3nccc(N4CCN(Cc5ccc6c(c5)OCO6)CC4)c3c2)cnc1Cl` [Example 84, N-(5-(4-(4-(1,3-benzodioxol-5-ylmethyl)-1-piperazinyl)-6-quinolinyl)-2-chloro-3-pyridinyl)methanesulfonamide] here?
Answer: Its Ki is 0.0225 µM.

Question: And the IC50 (mTOR)?
Answer: Its IC50 is 0.0487 µM.

Question: And the IC50 [1]?
Answer: Its IC50 is 0.289 µM.

Question: Which Ki (PI3Kα) does the source give for `O=S(=O)(Nc1cc(-c2ccc3c(c2)OCCO3)cnc1Cl)c1ccc(F)cc1` [Example 128, N-(2-Chloro-5-(2,3-dihydrobenzo[b][1,4]dioxin-6-yl)pyridin-3-yl)-4-fluorobenzenesulfonamide] here?
Answer: The Ki was 0.0333 µM.

Question: And the IC50 (mTOR)?
Answer: The IC50 was 0.0527 µM.

Question: What about the IC50 [1] of the same compound?
Answer: The IC50 was 20.4 µM.

Question: With `O=S(=O)(Nc1cc(-c2ccc3nccc(OCC4CCSCC4)c3c2)cnc1Cl)c1ccc(F)cc1` [Example 100, N-(2-chloro-5-(4-(tetrahydro-2H-thiopyran-4-ylmethoxy)-6-quinolinyl)-3-pyridinyl)-4-fluorobenzenesulfonamide] as the compound, how does the Ki (PI3Kα) read?
Answer: Its Ki is 0.0012 µM.

Question: What about the IC50 (mTOR) of the same compound?
Answer: The IC50 was 0.04 µM.

Question: With `O=S(=O)(Nc1cc(-c2ccc3nccc(N4CCN(Cc5ccncc5)CC4)c3c2)cnc1Cl)c1ccc(F)cc1` [Example 89, N-(2-chloro-5-(4-(4-(4-pyridinylmethyl)-1-piperazinyl)-6-quinolinyl)-3-pyridinyl)-4-fluorobenzenesulfonamide] as the compound, how does the IC50 (mTOR) read?
Answer: The IC50 was 0.0039 µM.

Question: What about the IC50 [1] of the same compound?
Answer: The IC50 was 0.0223 µM.

Question: Which results are given for `COc1ccc(S(=O)(=O)Nc2cc(-c3ccc4c(c3)OCCO4)cnc2Cl)cc1` [Example 127, N-(2-Chloro-5-(2,3-dihydrobenzo[b][1,4]dioxin-6-yl)pyridin-3-yl)-4-methoxybenzenesulfonamide]?
Answer: Ki (PI3Kα): 0.0273 µM; IC50 (mTOR): 0.0651 µM

Question: How did the IC50 (mTOR) turn out when `O=S1(=O)CCC(Oc2ccnc3ccc(-c4cnc(Cl)c(NS(=O)(=O)c5ccc(F)cc5)c4)cc23)C1` (stereo not shown) [Example 115, N-(2-Chloro-5-(4-(tetrahydrothiophen-1,1-dioxide-3-yloxy)quinolin-6-yl)pyridin-3-yl)-4-fluorobenzenesulfonamide] was run?
Answer: The IC50 was 0.0126 µM.

Question: What about the IC50 [1] of the same compound?
Answer: Its IC50 is 0.194 µM.

Question: Which Ki (PI3Kα) does the source give for `O=S(=O)(Nc1cc(-c2ccc3nccc(N4CCCC(O)CC4)c3c2)cnc1Cl)c1ccc(F)cc1` (stereo not shown) [Example 95, N-(2-chloro-5-(4-(4-hydroxy-1-azepanyl)-6-quinolinyl)-3-pyridinyl)-4-fluorobenzenesulfonamide] here?
Answer: Its Ki is 0.0058 µM.

Question: What about the IC50 (mTOR) of the same compound?
Answer: Its IC50 is 0.111 µM.

Question: With `O=S(=O)(Nc1cc(-c2ccc3nccc(-c4cccnc4)c3c2)cnc1Cl)c1ccc(F)cc1` [Example 93, N-(2-chloro-5-(4-(3-pyridinyl)-6-quinolinyl)-3-pyridinyl)-4-fluorobenzenesulfonamide] as the compound, how does the IC50 (mTOR) read?
Answer: Its IC50 is 0.0016 µM.

Question: What about the IC50 [1] of the same compound?
Answer: The IC50 was 0.0119 µM.

Question: `O=S(=O)(Nc1cc(-c2ccc3ncc(NCCN4CCOCC4)nc3c2)cnc1Cl)c1ccc(F)cc1` [Example 91, N-(2-chloro-5-(3-((2-(4-morpholinyl)ethyl)amino)-6-quinoxalinyl)-3-pyridinyl)-4-fluorobenzenesulfonamide] was tested. Which IC50 (mTOR) did it give?
Answer: Its IC50 is 0.0053 µM.

Question: What about the IC50 [1] of the same compound?
Answer: Its IC50 is 0.075 µM.

Question: How did the IC50 (mTOR) turn out when `CS(=O)(=O)Nc1cc(-c2ccc3nccc(C4CCOCC4)c3c2)cnc1Cl` [Example 114, N-(2-Chloro-5-(4-(tetrahydro-2H-pyran-4-yl)quinolin-6-yl)pyridin-3-yl)methanesulfonamide] was run?
Answer: Its IC50 is 0.0063 µM.

Question: And the IC50 [1]?
Answer: Its IC50 is 0.0254 µM.

Question: How did the Ki (PI3Kα) turn out when `O=S(=O)(Nc1cc(N2CCc3ncccc3C2)cnc1Cl)c1ccc(F)cc1` [Example 135, N-(2-Chloro-5-(7,8-dihydro-1,6-naphthyridin-6(5H)-yl)pyridin-3-yl)-4-fluorobenzenesulfonamide] was run?
Answer: The Ki was 0.0638 µM.

Question: What about the IC50 (mTOR) of the same compound?
Answer: The IC50 was 0.218 µM.
